The record followed here is US20080070868A1, “Novel Thiazole Inhibitors of Fructose 1,6-bisphosphatase” (Metabasis Therapeutics, Inc., priority 2004, published 2008).

The target in one data set is T1, human NAT2 (Homo sapiens, UniProt P11245).
T1 sequence (P11245 1-290): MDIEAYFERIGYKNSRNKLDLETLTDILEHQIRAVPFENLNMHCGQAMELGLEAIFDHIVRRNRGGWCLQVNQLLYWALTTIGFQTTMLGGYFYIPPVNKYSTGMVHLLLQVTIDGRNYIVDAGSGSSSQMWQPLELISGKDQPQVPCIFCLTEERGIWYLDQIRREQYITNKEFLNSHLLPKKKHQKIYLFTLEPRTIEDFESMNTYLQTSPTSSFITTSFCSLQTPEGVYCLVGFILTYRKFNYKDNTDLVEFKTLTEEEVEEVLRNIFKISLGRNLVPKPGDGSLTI
As to conditions: for % Conversion NAT2: human, 120 min, 100 μM, pH 7.4.

The subject of another data set is Sprague-Dawley rats. Kind of data set: Glucose lowering following oral administration to the fasted, normal rat. The conditions noted are these: maximum lowering relative to saline controls, 10 mg/kg oral, 18-h fasted rats. Format: in vivo. As to the method: Compounds were administered by oral gavage to 18-h fasted, Sprague-Dawley rats (250-300 g, n=3/4/group) at a dose of 10 mg/kg. Phosphonic acids (active moieties) were prepared in deionized water, and the solution adjusted to neutrality with sodium hydroxide. Prodrugs were dissolved in polyethylene glycol (mw 400). Blood samples were taken via tail vein nick immediately prior to dosing and at 1 h intervals thereafter. Blood glucose was analyzed by means of a HemoCue glucose analyzer (HemoCue Inc., Mission Viejo, Calif.). The table below indicates the maximum % glucose lowering achieved relative to control animals dosed with saline.

The target of another data set is T2, human liver FBPase (Homo sapiens, UniProt P09467).
T2 construct: made in house; host or cells: E. coli BL21
T2 sequence (P09467 2-338 limits assumed): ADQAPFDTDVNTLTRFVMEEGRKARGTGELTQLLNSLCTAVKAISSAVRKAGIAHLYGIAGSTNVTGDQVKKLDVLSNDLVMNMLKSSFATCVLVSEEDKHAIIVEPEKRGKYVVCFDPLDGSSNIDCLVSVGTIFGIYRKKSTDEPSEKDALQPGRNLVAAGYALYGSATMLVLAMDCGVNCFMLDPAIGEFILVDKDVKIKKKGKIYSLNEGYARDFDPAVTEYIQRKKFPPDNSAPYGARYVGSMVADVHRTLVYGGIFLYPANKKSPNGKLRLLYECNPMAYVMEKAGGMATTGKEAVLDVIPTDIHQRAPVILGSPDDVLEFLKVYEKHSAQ
Kind of data set: Inhibition of human liver FBPase. As to conditions: purified recombinant human liver FBPase, 0.150 mM fructose 1,6-bisphosphate, 37° C.; read-out: IC50 (hlFBPase). Format: biochemical. The method, then: E. coli strain BL21 transformed with a human liver FBPase-encoding plasmid was obtained from Dr. M. R. El-Maghrabi at the State University of New York at Stony Brook. […] Enzymatic activity was measured spectrophotometrically in reactions that coupled the formation of product (fructose 6-phosphate) to the reduction of dimethylthiazoldiphenyltetrazolium bromide (MTT) via NADP^+ and phenazine methosulfate (PMS), using phosphoglucose isomerase and glucose 6-phosphate dehydrogenase as the coupling enzymes. Reaction mixtures (200 μl) were made up in 96-well microtitre plates, and consisted of 50 mM Tris-HCl, pH 7.4, 100 mM KCl, 5 mM EGTA, 2 mM MgCl2, 0.2 mM NADP, 1 mg/ml BSA, 1 mM MTT, 0.6 mM PMS, 1 unit/ml phosphoglucose isomerase, 2 units/ml glucose 6-phosphate dehydrogenase, and 0.150 mM substrate (fructose 1,6-bisphosphate). Inhibitor concentrations were varied from 0.01 μM to 10 μM. Reactions were started by the addition of 0.002 units of pure hlFBPase, and were monitored for 7 min. at 590 nm in a Molecular Devices Plate Reader (37° C.).

The next data set deals with T3, human NAT1 (Homo sapiens, UniProt P18440).
T3 construct: purchased BD Gentest (Bedford, Mass.); host or cells: insect cells
T3 sequence (P18440 1-290): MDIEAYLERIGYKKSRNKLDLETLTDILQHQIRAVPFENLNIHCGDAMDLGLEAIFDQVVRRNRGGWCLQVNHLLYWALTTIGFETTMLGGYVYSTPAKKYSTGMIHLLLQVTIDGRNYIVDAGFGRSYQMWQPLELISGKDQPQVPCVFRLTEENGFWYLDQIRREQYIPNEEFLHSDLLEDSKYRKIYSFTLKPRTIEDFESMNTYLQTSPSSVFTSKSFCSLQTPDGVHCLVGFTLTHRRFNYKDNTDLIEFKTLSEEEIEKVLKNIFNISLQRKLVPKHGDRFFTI
Kind of data set: N-acetylation by recombinant human NAT1. Format: in vitro ADME. The conditions noted are these: for % Conversion NAT1: compound 100 μM, 37° C., 120 min, N-acyl product by HPLC; for susceptibility to N-acetylation by NAT1, in words: human recombinant NAT1.

The nature of data set [1]: Variability of N-acetylation in human liver S9 fractions. Format: in vitro ADME. The conditions noted are these: 100 μM, S9 10 mg/mL protein; donors with high or low N-acetylase activity. As to the method:
The reactions are incubated, processed, and analyzed as described in Example C.

A further data set deals with ZDF rats. Kind of data set: Blood glucose lowering in the Zucker Diabetic Fatty (ZDF) rat. The format is in vivo. As to conditions: for glucose lowering compared to vehicle-treated rats: 10 mg/kg oral in PEG-400, at 6 h, fasting ZDF rats; for duration of action: ZDF rat, oral, 2.1 at 10-300 mg/kg. The method, then:
Nine week old ZDF rats were fasted at 7 am and screened for hyperglycemia (BG>300 mg/dl) at 12:30 pm. […] Food was withheld for 6 to 9 h. Blood samples were collected intermittently from the tail vein and diluted 1:2 (v:v) in 20% glycerol-saline with 20 U/ml heparin. Blood glucose was determined by means of a Hemocue glucose analyzer (Hemocue Inc., Mission Viejo, Calif.) used according to the instructions of the manufacturer. Results were expressed as means ±standard errors of the mean (sem) for all values. Differences between treatment and vehicle-treated animals were evaluated using ANOVA with Dunnett's post-hoc analysis or Tukey-Kramer's post hoc analysis when all differences are compared. Differences are considered significant when p≦0.05.

The structures appear in SMILES notation. A value given as a limit tells only on which side of the number the result lay.

Method for human NAT1: (§1) Insect cell-expressed human NAT1 and NAT2 and control insect cytosol were obtained from BD Gentest (Bedford, Mass.). Compounds (100 μM) were incubated in 0.25 mL of NAT reaction cocktail consisting of 25 mM potassium phosphate pH 7.4 (at 25° C.), 1 mM EDTA, 1 mM DTT, 0.5 mM acetyl CoA, 5 mM acetyl-DL-carnitine, 20 u/mL acetyltransferase and either NAT1, NAT2 or control insect cytosol (0.1 mg/mL). Reactions were performed in an Eppendorf Thermomixer (37° C., 120 min.). At 0 and 120 min., 100 μl of each reaction was removed and added to a clean 1.7 mL tube containing 150 μl of 100% methanol. The tubes were vortexed and centrifuged at 14,000 rpm for 10 min. in an Eppendorf microcentrifuge (room temperature, 5 min., 14,000 rpm). The supernatants were analyzed by HPLC (Agilent 1100 series) using a Phenosphere C18 column (5 micron, 150×4.6 mm). The column was equilibrated with 20 mM potassium phosphate pH 4.5 or pH 6.2 (at 25° C.) and eluted with a linear gradient to 80% acetonitrile. The percent conversion of the compounds was calculated from the following equation: area of N-acyl product divided by (area of compound+area of N-acyl product), multiplied by 100.
Method for human NAT2: as §1

As a reminder, the inhibition in vivo is the drop in the measured response relative to a control, in per cent. Read a high inhibition in vivo as a response far below the control. On to `CCOC(=O)[C@H](C)NP(=O)(N[C@@H](C)C(=O)OCC)c1ccc(-c2nc(N)sc2C(=O)C(C)(C)C)o1` [Compound 2.2, 2-amino-5-(2,2-dimethylpropionyl)-4-{[5-(N,N′-((S)-1-ethoxycarbonyl)-ethyl)phosphonamido]furan-2-yl}thiazole], for which, at human NAT2, the “susceptibility to N-acetylation by NAT2, in words” value (“susceptibility … by NAT2, in words” below) was “insusceptible” and the “% Conversion NAT2” value is given as 0%. Further, the inhibition in vivo at 10 mg/kg in the data set with Sprague-Dawley rats is 25%.

In general, melting point refers to the temperature of the solid-liquid transition. For the molecule `CCC(C)(CC)C(=O)c1sc(N)nc1-c1ccc(P(=O)(NC(C)(C)C(=O)OC(C)C)NC(C)(C)C(=O)OC(C)C)o1` [Compound 2.6], the melting point lay in the range of 160 to 164 °C. Besides, the inhibition in vivo at 10 mg/kg in the data set on Sprague-Dawley rats is 12%.

By IC50 is commonly meant the concentration that inhibits the measured activity by half. As for `CCC(C)(C)C(=O)c1sc(N)nc1-c1ccc(P(=O)(O)O)o1` [Compound 1.2, {5-[2-amino-5-(2,2-dimethyl-butyryl)thiazol-4-yl]furan-2-yl}phosphonic acid], the IC50 on human liver FBPase turned out to be 25 nM. At human NAT1, the “% Conversion NAT1” value was determined as 0% and the “susceptibility to N-acetylation by NAT1, in words” value (“susceptibility … by NAT1, in words” below) is listed as “not metabolized”.

`CCC(C)(CC)C(=O)c1sc(N)nc1-c1ccc(P(=O)(O)O)o1` [Compound 1.3, [5-(2-amino-5-(2-ethyl-2-methyl-butyryl)thiazol-4-yl)furan-2-yl]phosphonic acid]: the melting point was 202 to 205 °C. Also, the IC50 on human liver FBPase worked out at 18 nM. For the same molecule, on human NAT1, the “% Conversion NAT1” value turned out to be 0% and the “susceptibility … by NAT1, in words” value is listed as “not metabolized”.

With `CC(=O)c1sc(N)nc1-c1ccc(P(=O)(O)O)o1` [Compound 1.4, [5-(2-amino-5-acetylthiazol-4-yl)furan-2-yl]phosphonic acid], the melting point was over 207 °C. In addition, at human liver FBPase, the IC50 stood at 66 nM.

As to `Nc1nc(-c2ccc(P(=O)(O)O)o2)c(CC2CCCC2)s1` [Compound 3.2, reference compound], the “% Conversion NAT1” value on human NAT1 worked out at 22.3%.

On to `CCC(C)Cc1sc(N)nc1-c1ccc(P(=O)(O)O)o1` (stereo not shown) [Compound 3.5, reference compound], for which, on human NAT1, the “% Conversion NAT1” value was 14.2%.

With `CC(C)OC(=O)C(C)(C)NP(=O)(NC(C)(C)C(=O)OC(C)C)c1ccc(-c2nc(N)sc2C(=O)C(C)(C)C)o1` [Compound 2.3], at human NAT2, the “susceptibility … by NAT2, in words” value was “insusceptible” and the “% Conversion NAT2” value turned out to be 0%. In addition, the inhibition in vivo at 10 mg/kg with Sprague-Dawley rats was determined as 27%.

`CCOC(=O)C(C)(C)NP(=O)(NC(C)(C)C(=O)OCC)c1ccc(-c2nc(N)sc2C(=O)C(C)(C)C)o1` [Compound 2.1] yielded a melting point of 149 to 152 °C. In addition, the IC50 at human liver FBPase was over 100000 nM. Also, in data set [1], the “conversion to N-acetylated metabolite in human liver S9 from various donors” value was “no conversion”. Besides, in the data set on ZDF rats, the “glucose lowering compared to vehicle-treated rats” value is given as 30% and the duration of action is recorded as over 9 h. Besides, on human NAT2, the “susceptibility … by NAT2, in words” value is on record as “insusceptible” and the “% Conversion NAT2” value came out at 0%. The molecule also showed an inhibition in vivo at 10 mg/kg in the data set on Sprague-Dawley rats of 68%. Moreover, at human NAT1, the “% Conversion NAT1” value is reported as 0% and the “susceptibility … by NAT1, in words” value is “insusceptible”.

In turn, `CCOC(=O)C(C)(C)NP(=O)(NC(C)(C)C(=O)OCC)c1ccc(-c2nc(N)sc2C(=O)C(C)(CC)CC)o1` [Compound 2.5] registered a melting point of 157 to 160 °C. The molecule further displayed an inhibition in vivo at 10 mg/kg with Sprague-Dawley rats of 15%.

Consider `CCOC(=O)[C@H](C)NP(=O)(N[C@@H](C)C(=O)OCC)c1ccc(-c2nc(N)sc2CC(C)C)o1` [Compound 4.6, reference compound], for which, on human liver FBPase, the IC50 was over 100000 nM. The “conversion to N-acetylated metabolite in human liver S9 from various donors” value in data set [1] was “high levels”. Moreover, in the data set on ZDF rats, the “glucose lowering compared to vehicle-treated rats” value worked out at 14% and the duration of action is recorded as about 3 h. On human NAT2, the “susceptibility … by NAT2, in words” value is “extensively metabolized” and the “% Conversion NAT2” value was found to be 62.4%. In addition, at human NAT1, the “% Conversion NAT1” value turned out to be 6.3%.

With `CCC(C)(C)Cc1sc(N)nc1-c1ccc(P(=O)(O)O)o1` [Compound 3.3, reference compound], the “% Conversion NAT1” value on human NAT1 was found to be 4.6%.

As for `CCOC(=O)CNP(=O)(NCC(=O)OCC)c1ccc(-c2nc(N)sc2C(=O)C(C)(C)C)o1` [Compound 2.4], the melting point fell in the range of 86 to 88 °C. For the same molecule, in the data set with Sprague-Dawley rats, the inhibition in vivo at 10 mg/kg stood at 22%.

In turn, `Nc1nc(-c2ccc(P(=O)(O)O)o2)c(C(=O)c2ccccc2)s1` [Compound 1.5, [5-(2-amino-5-benzoylthiazol-4-yl)furan-2-yl]phosphonic acid] returned a melting point of over 210 °C. The IC50 on human liver FBPase was 56 nM.

As to `CC(C)c1sc(N)nc1-c1ccc(P(=O)(O)O)o1` [Compound 3.4, reference compound], at human NAT1, the “% Conversion NAT1” value is 14.0%.

`CCC(CC)C(=O)c1sc(N)nc1-c1ccc(P(=O)(O)O)o1` [Compound 1.23, [5-(2-amino-5-(2-ethylbutyryl)thiazol-4-yl)furan-2-yl]-phosphonic acid]: the IC50 on human liver FBPase came to 9 nM.

`Nc1nc(-c2ccc(P(=O)(O)O)o2)c(C(=O)C2CCC2)s1` [Compound 1.34, [5-(2-amino-5-cyclobutylcarbonylthiazol-4-yl)furan-2-yl]-phosphonic acid]: the IC50 on human liver FBPase worked out at 16 nM.
